Test [1] concerns IL-12p70. Kind of test: Intracellular IL-12p70 flow cytometry of CD3- bone marrow cells. It counts as cell-based, mouse (C57BL/6). The settings on record: CD3- BM cells, PE-anti-IL-12p70. From the text: CD3+ cells were removed from BM cells using the fluorescence activated cell sorter and then untreated or treated with JgD, gD or JH. Flow cytometric analysis of the sorted population confirmed the removal of CD3 positive cells. The CD3− BM cells were labeled with FIT C-anti-CD8 (Beckman Coulter (clone 53-6.7)), fixed with paraformaldehyde, permeabilized with saponin (Intraprep, Immunotech), labeled with PE-anti-IL-12p70 (Beckman Coulter) and then post fixed with paraformaldehyde prior to immunofluorescence analysis.

Test [2] concerns C57BL/6 bone marrow cells (monocyte population). Kind of test: Flow cytometry of CD11c and CD86 expression on peptide-treated bone marrow cells. The settings on record: BM monocyte population by light scatter, second day after treatment; for CD11c expression: PE-anti-CD11c, versus untreated; for CD86 expression: PE-anti-CD86, versus untreated. It counts as cell-based, mouse (C57BL/6). On the procedure: Bone marrow (BM) cells were prepared. Briefly, the femurs and tibias were obtained from five C57BL/6 female mice, and the ends were removed to expose the hollow bone packed with marrow. BM cells were flushed from the bones with cold Hanks Balanced Salt Solution (HBSS) using a sterile disposable 22 g needle and pooled. Red blood cells (RBCs) were lysed using Tris-buffered ammonium chloride and resultant cells were washed 3 times in HBSS, BM cells were suspended in tissue culture medium (TCM) (RPMI 1640 with glutaminic plus […] PenStrep, 50 μM 2-mercaptoethanol, and 5% fetal calf serum) at approximately 5×10^6 cells/ml and incubated for 1 hour at 37° C. in a 5% CO2 atmosphere in plastic tissue culture flasks to remove adherent, mature macrophages. Decanted non-adherent cells were resuspended in TCM and 1.5×10^6 BM cells in 1 ml were placed into each well of a 24 well tissue culture plate (Falcon) and either left untreated or treated with […] of peptide J or JgD LEAPS™ heteroconjugate. After incubation for 48 hrs at 37° C., cells were viewed and photographed for changes in morphology, tissue culture supernatants were removed and the cells were prepared for flow cytometric analysis.
For analysis of CD11c and CD86 expression, untreated and peptide treated BM cells, prepared and treated as described above, were labeled with PE-anti-Cd11c or PE-anti CD86 (Beckman Coulter Fullerton, Calif.) At least […] were analyzed (Altra FACS, Beckman Coulter) using forward and side scatter parameters to limit (gating) the immunofluorescence analysis to cells of the size and granularity of monocytes and dendritic cells.
The monocyte population of BM cells, as defined by light scatter parameters, was analyzed on the second day after treatment with J, gD, JgD or JH.

In test [3] the test system is collagen induced arthritis (CIA) model in DBA/IJ mice. Kind of test: Collagen induced arthritis (CIA) model, Arthritis Index. It counts as in vivo. On the procedure: The following study is of CEL-2000 therapeutic vaccine for collagen induced arthritis (CIA) where the first step was to identify a good animal model for testing the vaccine, which is the collagen induced arthritis (CIA) model in young (6-7) week old male DBA/IJ mice. These mice received 2 injections of bovine collagen the first in complete Freund's adjuvant (CFA) on day 0 and then 3 weeks later on day 21, in Incomplete CFA. After the second collagen injection, the mice were evaluated daily for any joint swelling or redness. Each of the paws was scored on a 4 point scale (Arthritis Index (AI) with respect to the number of digits with symptoms and the thickness of the paw measured, at least 3-4 times a week. Each mouse was weighed weekly.
When significant disease is noted, usually about day 28, the mice are grouped (n=8) with a range of scores between 1 and 6 and group mean of 2.5 to 3. At this point the therapy begins according to protocol. Controls include groups with induced disease but no therapy and groups of healthy mice without induced disease. A therapy control of Enbrel® (3 mg/kg, every other day) was included. Over the 28-day course of study, the outcomes of different CEL-2000 and CEL-2003 treatment schedules were compared with Enbrel. In this study, CEL-200 treatment with 2 doses of 33 or 100 nmol were given subcutaneously on days 0 and 7 or on days 0 and 14. CEL-2003 was used at one dose of […] on days 0 and 14. […] The AI score for each paw (4 paws total) were added for each group and reported on FIG. 4.

For “DLLKNGERIEKVE (listed as Homo sapiens) [J-ICBL, ICBL derived from amino acids 38-50 of the β-2-microglobulin chain of the MHC 1 molecule]”, the IL-12p70 expressing cells entry in test [1] is listed as “no significant increase”. Besides, in test [2], the CD11c expression result is “no discernible change” and the CD86 expression entry is “no discernible change”.
In the case of DLLKNGERIEKVEGGGSLKMADPNRFRGKDLP [JgD], in test [2], the CD11c expression entry is “expressed” and the CD86 expression result was “expressed”.
Consider “DLLKNGERIEKVEGGGTGGKPGIAGFKGEQGPKGEP (Heteroconjugate construct) [CEL-2000, Peptide J linked to the human type II collagen peptide 254-273 through a triglycine linker]”, for which the “progression of arthritis disease (AI score)” value in test [3] (100 nmol dose (3x treatment) subcutaneously on days 0 and 7, 28-day study) was “appeared to limit the progression of disease throughout the experimental period”. Besides, the “progression of arthritis disease compared with Enbrel” value in test [3] (2 doses of 33 or 100 nmol s.c. on days 0 and 7 or 0 and 14 (most regimes), Enbrel 3 mg/kg every other day for 28 days) was “at least as good as those of mice treated with Enbrel®”. The “Student t test comparison of treatment groups with Enbrel” value in test [3] (days 7, 14 and 21, 3x dose days 0 and 14, 3x days 0 and 7, 1x days 0 and 7 or 0 and 14) was “slightly better than Embrel”.
Take SLKMADPNRFRGKDLP [gD]: in test [2], the CD11c expression entry is recorded as “no discernible change” and the CD86 expression result is given as “no discernible change”.

These data come from patent publication US10179164B2, “Method for inducing an immune response for treatment of cancer and autoimmune diseases or conditions” (priority 2011, dated 2019).
